According to patent US20100003217A1, “Compounds and Pharmaceutical Compositions for the Treatment of Viral Infections” (priority 2008, published 2010):
Each block holds one compound with its values, some of them ahead of it.

Experiments:
[1] = test system: HCV genotype 1b replicon (Zluc cells); assay: HCV luciferase replicon assay; format: cell-based, hepatitis C virus; details: Hepatitis C virus, 72 h, 3 days
Experimental: The HCV luciferase replicon assay measures the ability of a test compound to inhibit HCV replication in cell culture after 3 days of treatment in a human hepatoma cell line (Huh-7) bearing the HCV genotype 1b replicon and a luciferase-neomycin phosphotransferase fusion gene. The inhibition of HCV replication was measured by quantification of luciferase protein expression. The HCV luciferase replicon was constructed by fusing a luciferase gene to the amino terminus of the neomycin phosphotransferase gene of the ZS11 HCV replicon. The ZS11 HCV replicon (Zhu Q, Guo J-T, and Seeger C, 2003) is derived from the SP1 replicon, but contains three cell culture-adapted mutations: E1202G (NS3), S22041 (NS5A), and D2254E (NS5A). These mutations allow for efficient in vitro replication. The luciferase reporter gene was amplified from the pGL4.13[luc2/SV40] vector (Promega Corp.). The replicon resulting from the luciferase-neomycin fusion (ZS11-luc) was stably-transfected into Huh-7 cells, yielding the Zluc cell line.
The luciferase replicon assay is summarized as follows: Solid white 96-well tissue culture plates (BD Falcon) were seeded with Zluc cells. Antiviral compound solutions were made up freshly in medium as 2×-concentrated stocks. Eight additional 3-fold drug dilutions were prepared from these stocks in medium for a total of 9 dilutions. At least four hours after Zluc cells were seeded, drug treatment was initiated by adding one volume of each 2×-concentrated drug dilution to one volume of cells/medium in the tissue culture plates. Cells were then incubated for 3 days at 37° C./5% CO2.
The media/compound was then removed from the plates and the ONE-glo Luciferase assay reagent (Promega) was added to each well. The assay plates were shaken for 3 minutes at room temperature and luciferase activity for each well was measured with a 1 sec read time on the Victor^3V multilabel counter using a 700 nm cut-off filter (Perkin Elmer). EC50 values were calculated from dose response curves from the resulting best-fit equations determined by Microsoft Excel and XLfit 4.1 software.

CYP1A2 = CYP1A2 (Homo sapiens, UniProt P05177); assay: Incubation with human recombinant CYP450 supersomes, 1A2; format: in vitro ADME; details: CYP450 1A2 supersomes, 60 min, 10 μM, average of two experiments
Sequence of CYP1A2 (P05177 whole entry): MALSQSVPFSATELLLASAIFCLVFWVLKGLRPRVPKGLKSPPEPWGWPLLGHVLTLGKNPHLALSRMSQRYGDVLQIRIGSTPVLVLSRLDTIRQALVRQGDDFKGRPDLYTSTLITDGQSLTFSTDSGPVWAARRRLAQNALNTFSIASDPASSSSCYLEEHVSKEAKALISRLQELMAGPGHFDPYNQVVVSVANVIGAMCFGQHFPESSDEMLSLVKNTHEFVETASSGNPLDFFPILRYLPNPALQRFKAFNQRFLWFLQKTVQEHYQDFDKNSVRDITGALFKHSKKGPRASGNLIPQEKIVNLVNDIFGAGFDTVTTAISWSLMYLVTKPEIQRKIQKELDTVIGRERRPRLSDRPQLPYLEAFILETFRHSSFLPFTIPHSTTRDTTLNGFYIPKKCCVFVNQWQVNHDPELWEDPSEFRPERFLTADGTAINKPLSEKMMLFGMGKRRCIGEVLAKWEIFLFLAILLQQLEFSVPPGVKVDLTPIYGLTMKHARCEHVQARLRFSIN
Experimental: (§1) Supersomes—Incubations were conducted in a final volume of 0.1 mL reaction buffer (50-100 mM potassium phosphate, pH 7.4 or 100 mM Tris-HCL, pH 7.4) according to protocol provided with each CYP450 supersome. Each reaction contained […] of CYP450 supersome, 1.3 mM NADP^+, 3.3 mM glucose-6-phosphate, 0.4 U/mL glucose-6-phosphate dehydrogenase, 3.3 mM MgCl2 and 10 μM Compound 1. Following incubation for 60 min at 37° C., 100 μL of stop solution (acetonitrile:methanol; 1:1) was added and samples centrifuged for 10 min at 10,000×g. The supernatant was then dried and reconstituted in 10 mM potassium phosphate, pH 5, further transferred to an HPLC glass vial and analyzed by HPLC-UV (described above).

CYP2A6 = CYP2A6 (Homo sapiens, UniProt P11509); assay: Incubation with human recombinant CYP450 supersomes, 2A6; format: in vitro ADME; details: CYP450 2A6 supersomes, 60 min, 10 μM, average of two experiments
Sequence of CYP2A6 (P11509 whole entry): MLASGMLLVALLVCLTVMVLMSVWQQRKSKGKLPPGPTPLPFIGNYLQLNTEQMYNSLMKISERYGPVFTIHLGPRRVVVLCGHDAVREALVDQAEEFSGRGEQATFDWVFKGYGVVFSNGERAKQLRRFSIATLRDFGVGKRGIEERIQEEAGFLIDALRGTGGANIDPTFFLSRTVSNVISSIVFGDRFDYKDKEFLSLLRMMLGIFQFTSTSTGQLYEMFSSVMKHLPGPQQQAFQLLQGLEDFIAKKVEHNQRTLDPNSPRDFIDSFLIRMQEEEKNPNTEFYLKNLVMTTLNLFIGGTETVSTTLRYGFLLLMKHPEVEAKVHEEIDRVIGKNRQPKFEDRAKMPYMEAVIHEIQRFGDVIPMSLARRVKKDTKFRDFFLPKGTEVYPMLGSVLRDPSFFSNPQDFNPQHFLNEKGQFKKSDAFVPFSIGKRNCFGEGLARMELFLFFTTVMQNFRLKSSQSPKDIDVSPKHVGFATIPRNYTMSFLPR
Experimental: as §1

CYP2B6 = CYP2B6 (Homo sapiens, UniProt P20813); assay: Incubation with human recombinant CYP450 supersomes, 2B6; format: in vitro ADME; details: CYP450 2B6 supersomes, 60 min, 10 μM, average of two experiments
Sequence of CYP2B6 (P20813 whole entry): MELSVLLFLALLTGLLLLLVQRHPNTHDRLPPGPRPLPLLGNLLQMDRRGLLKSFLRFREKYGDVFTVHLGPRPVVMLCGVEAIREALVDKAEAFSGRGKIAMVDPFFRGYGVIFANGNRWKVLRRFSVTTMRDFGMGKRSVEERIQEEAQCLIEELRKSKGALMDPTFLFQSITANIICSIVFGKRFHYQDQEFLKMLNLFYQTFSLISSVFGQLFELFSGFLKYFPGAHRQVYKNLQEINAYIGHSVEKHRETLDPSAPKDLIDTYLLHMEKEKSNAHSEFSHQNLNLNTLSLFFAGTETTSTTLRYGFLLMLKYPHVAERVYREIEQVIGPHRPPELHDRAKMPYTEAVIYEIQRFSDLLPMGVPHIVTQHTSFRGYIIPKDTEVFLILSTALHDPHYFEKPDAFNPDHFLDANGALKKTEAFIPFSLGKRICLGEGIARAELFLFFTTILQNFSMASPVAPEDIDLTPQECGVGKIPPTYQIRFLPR
Experimental: as §1

CYP2C9 = CYP2C9 (Homo sapiens, UniProt P11712); assay: Incubation with human recombinant CYP450 supersomes, 2C9; format: in vitro ADME; details: CYP450 2C9 supersomes, 60 min, 10 μM, average of two experiments
Sequence of CYP2C9 (P11712 whole entry): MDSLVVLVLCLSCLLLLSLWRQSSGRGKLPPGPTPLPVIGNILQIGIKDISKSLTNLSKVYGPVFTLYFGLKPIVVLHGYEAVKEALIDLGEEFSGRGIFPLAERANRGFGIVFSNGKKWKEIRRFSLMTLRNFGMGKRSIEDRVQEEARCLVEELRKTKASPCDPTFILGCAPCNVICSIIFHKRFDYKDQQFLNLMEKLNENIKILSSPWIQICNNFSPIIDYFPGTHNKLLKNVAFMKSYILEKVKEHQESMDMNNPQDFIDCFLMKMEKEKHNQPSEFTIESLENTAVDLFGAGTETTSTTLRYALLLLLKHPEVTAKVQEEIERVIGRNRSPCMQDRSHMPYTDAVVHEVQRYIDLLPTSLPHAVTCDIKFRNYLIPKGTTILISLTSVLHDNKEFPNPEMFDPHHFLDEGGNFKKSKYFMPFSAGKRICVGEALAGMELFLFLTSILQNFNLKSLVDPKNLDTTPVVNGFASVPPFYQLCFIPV
Experimental: as §1

CYP2E1 = CYP2E1 (Homo sapiens, UniProt P05181); assay: Incubation with human recombinant CYP450 supersomes, 2E1; format: in vitro ADME; details: CYP450 2E1 supersomes, 60 min, 10 μM, average of two experiments
Sequence of CYP2E1 (P05181 whole entry): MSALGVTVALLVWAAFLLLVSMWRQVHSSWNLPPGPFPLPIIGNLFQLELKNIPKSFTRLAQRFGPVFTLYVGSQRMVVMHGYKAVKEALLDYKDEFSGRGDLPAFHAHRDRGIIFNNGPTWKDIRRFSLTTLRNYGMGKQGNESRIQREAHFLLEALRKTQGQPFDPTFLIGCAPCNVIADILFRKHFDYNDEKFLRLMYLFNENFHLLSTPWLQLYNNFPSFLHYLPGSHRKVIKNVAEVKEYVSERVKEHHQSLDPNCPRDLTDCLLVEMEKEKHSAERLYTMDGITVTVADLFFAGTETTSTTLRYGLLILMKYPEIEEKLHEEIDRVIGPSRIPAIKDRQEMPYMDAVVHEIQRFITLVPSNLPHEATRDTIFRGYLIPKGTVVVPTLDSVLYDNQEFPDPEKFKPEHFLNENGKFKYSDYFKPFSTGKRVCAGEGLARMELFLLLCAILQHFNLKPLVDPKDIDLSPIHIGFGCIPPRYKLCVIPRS
Experimental: as §1

[2] = Rat plasma pharmacokinetics of total radioactivity after [^14C]-Compound 1; format: in vivo, male Sprague-Dawley rats
Experimental: A preliminary rat metabolism study was conducted with radiolabeled Compound 1. The compound was labeled with [^14C] in the C-8 position of the guanine moiety. The objectives of the study were to determine, 1) the plasma pharmacokinetics of total radioactivity, 2) the time-course of total radioactivity and the amount of 2′-C-methyl guanosine-5′-TP in liver, 3) the major route of excretion, and 4) the metabolic profile in excreta, liver, and plasma.
Isotopically diluted [^14C]-Compound 1 was administered intravenously to male Sprague-Dawley rats at 50 mg/kg or by oral gavage at 100 mg/kg.
The plasma concentration-time data for total radioactivity was analyzed using Microsoft® Office Excel 2003 to obtain the area under the concentration-time curve (AUC). AUC0-24 (area under the concentration-time curve from 0 to 24 h after dosing) was calculated using the linear trapezoidal rule and nominal sampling times. For the IV dose group, concentration at time zero was extrapolated from the concentration data for the first two time points. The maximum (peak) plasma concentrations (Cmax) and the time to peak concentrations (tmax) were the observed values. Descriptive statistics were prepared in Excel.
Radioanalyses of plasma samples were conducted. The plasma concentration data for total radioactivity expressed as μg equivalents/mL are summarized below: […]

[3] = In vitro intracellular half-life of 2′-C-methyl guanosine-5′-triphosphate (Compound 7) in human primary hepatocytes; format: in vitro ADME; details: human, primary hepatocytes (cellular extracts)
Experimental: (§2) Primary hepatocytes were incubated with 10 μM [^14C]-Compound 1 ([…]) or [^14C]-2′-C-methyl guanosine (127 DPM/μmol) for 24 hours at which time the incubation medium was removed and the cell monolayer carefully washed two times with warm (37° C.) PBS and placed back in culture with drug-free medium. At selected times up to 24 hours, the medium was removed and the cell monolayers carefully washed two times with ice-cold PBS. Following the last wash, all PBS was carefully removed and the cell monolayers processed and extracted as previously described. […]

[4] = test system: human primary hepatocytes; assay: as above; format: in vitro ADME; details: for Decay of Compound 7: level in cellular extracts: human hepatocytes Hu775; for Compound 7 levels after 24 hours without drug / reduction of Compound 7 levels after 24 hours without drug / Compound 7 levels at time zero: human hepatocytes
Experimental: as §2

[5] = [^14C]-2′-C-methyl guanosine removed

Compound: CC(C)(CO)C(=O)SCCOP(=O)(NCc1ccccc1)OC[C@H]1O[C@@H](n2cnc3c(=O)[nH]c(N)nc32)[C@](C)(O)[C@@H]1O (mixture of isomers) [Compound 1, 3-hydroxy-2,2-dimethyl-thiopropionic acid S-(2-{[(2R,3R,4R,5R)-5-(2-amino-6-oxo-1,6-dihydro-purin-9-yl)-3,4-dihydroxy-4-methyl-tetrahydro-furan-2-ylmethoxy]-benzylamino-phosphoryloxy}-ethyl) ester]
EC50 [1]: 68 ± 0.4 nM
% Residual Compound 1 (CYP1A2): 104%
% Residual Compound 1 (CYP2A6): 105%
% Residual Compound 1 (CYP2B6): 108%
% Residual Compound 1 (CYP2C9): 109%
% Residual Compound 1 (CYP2E1): 100%
AUC0-24 of plasma total radioactivity ([2]; IV 50 mg/kg [^14C]-Compound 1): 36.0 hr.μg equivalent/mL
AUC0-24 of plasma total radioactivity ([2]; PO 100 mg/kg [^14C]-Compound 1): 15.4 hr.μg equivalent/mL

half-life at 10 μM ([3]; in vitro half-life for Compound 7, human hepatocytes, after 2′-C-methyl guanosine): 10.8 h
half-life at 10 μM ([3]; in vitro half-life for Compound 7, human hepatocytes, following [^14C]-Compound 1): 17.4 h
half-life at 10 μM ([3]; in vitro intracellular t1/2 of Compound 7, human hepatocytes Hu775, after 24 h incubation with 10 μM [^14C]-2′-C-methyl guanosine, linear regression): 10.8 h
half-life at 10 μM ([3]; in vitro intracellular t1/2 of Compound 7, human hepatocytes Hu775, after 24 h incubation with 10 μM [^14C]-Compound 1, linear regression): 17.4 h
Decay of Compound 7: level in cellular extracts ([4]; after 24 h incubation with 10 μM [^14C]-2′-C-methyl guanosine, decay time 0 h): 266 pmol/million cells
Decay of Compound 7: level in cellular extracts ([4]; after 24 h incubation with 10 μM [^14C]-2′-C-methyl guanosine, decay time 1 h): 259 pmol/million cells
Decay of Compound 7: level in cellular extracts ([4]; after 24 h incubation with 10 μM [^14C]-2′-C-methyl guanosine, decay time 4 h): 217 pmol/million cells
Decay of Compound 7: level in cellular extracts ([4]; after 24 h incubation with 10 μM [^14C]-2′-C-methyl guanosine, decay time 8 h): 190 pmol/million cells
Decay of Compound 7: level in cellular extracts ([4]; after 24 h incubation with 10 μM [^14C]-2′-C-methyl guanosine, decay time 24 h): 58.0 pmol/million cells
Decay of Compound 7: level in cellular extracts ([4]; after 24 h incubation with 10 μM [^14C]-Compound 1, decay time 0 h): 692 pmol/million cells
Decay of Compound 7: level in cellular extracts ([4]; after 24 h incubation with 10 μM [^14C]-Compound 1, decay time 1 h): 702 pmol/million cells
Decay of Compound 7: level in cellular extracts ([4]; after 24 h incubation with 10 μM [^14C]-Compound 1, decay time 4 h): 597 pmol/million cells
Decay of Compound 7: level in cellular extracts ([4]; after 24 h incubation with 10 μM [^14C]-Compound 1, decay time 8 h): 497 pmol/million cells
Decay of Compound 7: level in cellular extracts ([4]; after 24 h incubation with 10 μM [^14C]-Compound 1, decay time 24 h): 273 pmol/million cells
Compound 7 levels after 24 hours without drug [4, 5]: 58 pmol/million cells
reduction of Compound 7 levels after 24 hours without drug [4, 5]: 78%
Compound 7 levels after 24 hours without drug ([4]; [^14C]-Compound 1 removed): 273 pmol/million cells
reduction of Compound 7 levels after 24 hours without drug ([4]; [^14C]-Compound 1 removed): 61%
Compound 7 levels at time zero ([4]; after 24 h with 10 μM [^14C]-Compound 1): 692 pmol/million cells
Compound 7 levels at time zero ([4]; after 24 h with [^14C]-2′-C-methyl guanosine): 266 pmol/million cells
Compound: C[C@@]1(O)[C@H](O)[C@@H](COP(=O)(O)OP(=O)(O)OP(=O)(O)O)O[C@H]1n1cnc2c(=O)[nH]c(N)nc21 [Compound 7, [(2R)-2-methyl-β-D-ribofuranosyl]guanine 5′-triphosphate]
